Laboratory results as given in ChEMBL document CHEMBL4130433, “Acridone-pyrimidine hybrids- design, synthesis, cytotoxicity studies in resistant and sensitive cancer cells and molecular docking studies” (Eur J Med Chem, 2017).

Columns and labels:
[1] = system: Rattus norvegicus; experiment: Toxicity in overnight fasted albino Wistar rat assessed as body weight at 300 mg/kg, po administered as single dose followed by fasting for 3 hrs measured on day 8 post dose (reference value: 177 +/- 8 g); type: organism-based; conditions: in vivo
[2] = system: Rattus norvegicus; experiment: Toxicity in overnight fasted albino Wistar rat assessed as body weight at 5000 mg/kg, po administered as single dose followed by fasting for 3 hrs measured on day 11 post dose (reference value: 185 +/- 8 g); type: organism-based; conditions: in vivo
[3] = system: Rattus norvegicus; experiment: Toxicity in overnight fasted albino Wistar rat assessed as body weight at 2000 mg/kg, po administered as single dose followed by fasting for 3 hrs measured on day 1 post dose (reference value: 162 +/- 8 g); type: organism-based; conditions: in vivo
[4] = system: SW1573; experiment: Antiproliferative activity against resistant human SW1573 2R 120 cells harboring MRP1 after 72 hrs by MTT assay; type: functional, cell-based; conditions: SW1573, 72 h
[5] = system: Rattus norvegicus; experiment: Toxicity in overnight fasted albino Wistar rat assessed as body weight at 300 mg/kg, po administered as single dose followed by fasting for 3 hrs measured on day 4 post dose (reference value: 169 +/- 5 g); type: organism-based; conditions: in vivo
[6] = system: Rattus norvegicus; experiment: Toxicity in overnight fasted albino Wistar rat assessed as body weight at 300 mg/kg, po administered as single dose followed by fasting for 3 hrs measured on day 2 post dose (reference value: 165 +/- 12 g); type: organism-based; conditions: in vivo
[7] = system: Rattus norvegicus; experiment: Toxicity in overnight fasted albino Wistar rat assessed as body weight at 5000 mg/kg, po administered as single dose followed by fasting for 3 hrs measured on day 8 post dose (reference value: 177 +/- 8 g); type: organism-based; conditions: in vivo
[8] = system: Rattus norvegicus; experiment: Toxicity in overnight fasted albino Wistar rat assessed as body weight at 2000 mg/kg, po administered as single dose followed by fasting for 3 hrs measured on day 3 post dose (reference value: 166 +/- 10 g); type: organism-based; conditions: in vivo
[9] = system: Rattus norvegicus; experiment: Toxicity in overnight fasted albino Wistar rat assessed as body weight at 300 mg/kg, po administered as single dose followed by fasting for 3 hrs measured on day 10 post dose (reference value: 182 +/- 15 g); type: organism-based; conditions: in vivo
[10] = Cytotoxicity against African green monkey Vero cells after 72 hrs by MTT assay; type: cell-based; conditions: chlorocebus sabaeus
[11] = system: Rattus norvegicus; experiment: Toxicity in overnight fasted albino Wistar rat assessed as body weight at 5000 mg/kg, po administered as single dose followed by fasting for 3 hrs measured on day 13 post dose (reference value: 188 +/- 16 g); type: organism-based; conditions: in vivo
[12] = system: SW1573; experiment: Antiproliferative activity against resistant human SW1573 2R 160 cells harboring P-gp after 72 hrs by MTT assay; type: functional, cell-based; conditions: SW1573, 72 h
[13] = system: Rattus norvegicus; experiment: Toxicity in overnight fasted albino Wistar rat assessed as body weight at 300 mg/kg, po administered as single dose followed by fasting for 3 hrs measured on day 3 post dose (reference value: 166 +/- 10 g); type: organism-based; conditions: in vivo
[14] = system: Rattus norvegicus; experiment: Toxicity in overnight fasted albino Wistar rat assessed as body weight at 300 mg/kg, po administered as single dose followed by fasting for 3 hrs measured on day 14 post dose (reference value: 191 +/- 18 g); type: organism-based; conditions: in vivo
[15] = system: Rattus norvegicus; experiment: Toxicity in overnight fasted albino Wistar rat assessed as body weight at 5000 mg/kg, po administered as single dose followed by fasting for 3 hrs measured on day 12 post dose (reference value: 186 +/- 13 g); type: organism-based; conditions: in vivo
[16] = system: Rattus norvegicus; experiment: Toxicity in overnight fasted albino Wistar rat assessed as body weight at 5000 mg/kg, po administered as single dose followed by fasting for 3 hrs measured on day 10 post dose (reference value: 182 +/- 15 g); type: organism-based; conditions: in vivo
[17] = system: Rattus norvegicus; experiment: Toxicity in overnight fasted albino Wistar rat assessed as body weight at 2000 mg/kg, po administered as single dose followed by fasting for 3 hrs measured on day 9 post dose (reference value: 180 +/- 12 g); type: organism-based; conditions: in vivo
[18] = system: Rattus norvegicus; experiment: Toxicity in overnight fasted albino Wistar rat assessed as body weight at 2000 mg/kg, po administered as single dose followed by fasting for 3 hrs measured on day 7 post dose (reference value: 175 +/- 10 g); type: organism-based; conditions: in vivo
[19] = Antiproliferative activity against human MCF7/MX cells after 72 hrs by MTT assay; type: functional, cell-based
[20] = system: Rattus norvegicus; experiment: Toxicity in overnight fasted albino Wistar rat assessed as body weight at 5000 mg/kg, po administered as single dose followed by fasting for 3 hrs measured on day 6 post dose (reference value: 173 +/- 12 g); type: organism-based; conditions: in vivo
[21] = system: Rattus norvegicus; experiment: Toxicity in overnight fasted albino Wistar rat assessed as body weight at 2000 mg/kg, po administered as single dose followed by fasting for 3 hrs measured on day 14 post dose (reference value: 191 +/- 18 g); type: organism-based; conditions: in vivo
[22] = system: Rattus norvegicus; experiment: Toxicity in overnight fasted albino Wistar rat assessed as clinical signs at 300 to 5000 mg/kg, po administered as single dose followed by fasting for 3 hrs measured for every 1 hr up to 12 hrs on first day of dosing and thereafter twice in a day for 14 days; type: organism-based; conditions: in vivo
[23] = system: Rattus norvegicus; experiment: Toxicity in overnight fasted albino Wistar rat assessed as body weight at 5000 mg/kg, po administered as single dose followed by fasting for 3 hrs measured on day 5 post dose (reference value: 172 +/- 14 g); type: organism-based; conditions: in vivo
[24] = system: Rattus norvegicus; experiment: Toxicity in overnight fasted albino Wistar rat assessed as body weight at 5000 mg/kg, po administered as single dose followed by fasting for 3 hrs measured on day 4 post dose (reference value: 169 +/- 5 g); type: organism-based; conditions: in vivo
[25] = system: Rattus norvegicus; experiment: Toxicity in overnight fasted albino Wistar rat assessed as body weight at 300 mg/kg, po administered as single dose followed by fasting for 3 hrs measured on day 11 post dose (reference value: 185 +/- 8 g); type: organism-based; conditions: in vivo
[26] = Antiproliferative activity against human MCF7/DX cells after 72 hrs by MTT assay; type: functional, cell-based
[27] = system: HeLa; experiment: Antiproliferative activity against human HeLa cells after 72 hrs by MTT assay; type: functional, cell-based
[28] = system: Rattus norvegicus; experiment: Toxicity in overnight fasted albino Wistar rat assessed as body weight at 300 mg/kg, po administered as single dose followed by fasting for 3 hrs measured on day 5 post dose (reference value: 172 +/- 14 g); type: organism-based; conditions: in vivo
[29] = system: Rattus norvegicus; experiment: Toxicity in overnight fasted albino Wistar rat assessed as body weight at 300 mg/kg, po administered as single dose followed by fasting for 3 hrs measured on day 12 post dose (reference value: 186 +/- 13 g); type: organism-based; conditions: in vivo
[30] = system: Rattus norvegicus; experiment: Toxicity in overnight fasted albino Wistar rat assessed as body weight at 2000 mg/kg, po administered as single dose followed by fasting for 3 hrs measured on day 2 post dose (reference value: 165 +/- 12 g); type: organism-based; conditions: in vivo
[31] = system: 2008; experiment: Antiproliferative activity against human 2008 cells after 72 hrs by MTT assay; type: functional, cell-based; conditions: Homo sapiens, 2008, 72 h
[32] = system: Rattus norvegicus; experiment: Toxicity in overnight fasted albino Wistar rat assessed as body weight at 5000 mg/kg, po administered as single dose followed by fasting for 3 hrs measured on day 7 post dose (reference value: 175 +/- 10 g); type: organism-based; conditions: in vivo
[33] = system: Rattus norvegicus; experiment: Toxicity in overnight fasted albino Wistar rat assessed as body weight at 300 mg/kg, po administered as single dose followed by fasting for 3 hrs measured on day 9 post dose (reference value: 180 +/- 12 g); type: organism-based; conditions: in vivo
[34] = system: Rattus norvegicus; experiment: Toxicity in overnight fasted albino Wistar rat assessed as body weight at 2000 mg/kg, po administered as single dose followed by fasting for 3 hrs measured on day 11 post dose (reference value: 185 +/- 8 g); type: organism-based; conditions: in vivo

With `COC(=O)c1c(C)nc(NNC(=O)c2cccc3c(=O)c4ccccc4[nH]c23)nc1-c1ccc(OC)c(OC)c1` the Activity [1] was 192 g, the Activity [2] was 219 g and the Activity [3] was 183 g. The IC50 [4] was > 100 µM, the Activity [5] was 186 g and the Activity [6] was 183 g. For the same compound, the Activity [7] was 208 g, the Activity [8] was 186 g and the Activity [9] was 193 g. The CC50 at 72 h [10] was 85.7 µM, the Activity [11] was 224 g and the IC50 [12] was 12 µM. It also gave an Activity [13] of 185 g, an Activity [14] of 208 g and an Activity [15] of 221 g. It also gave an Activity [16] of 215 g, an Activity [17] of 199 g and an Activity [18] of 195 g. For the same compound, the IC50 [19] was 78 µM, the Activity [20] was 202 g and the Activity [21] was 213 g. For the same compound, the Activity [22] was “Non-Toxic”, the Activity [23] was 198 g and the Activity [24] was 196 g. It also gave an Activity [25] of 196 g, an IC50 [26] of 78 µM and an IC50 [27] of 63.5 µM. For the same compound, the Activity [28] was 188 g, the Activity [29] was 199 g and the Activity [30] was 184 g. It also gave an IC50 [31] of 26 µM, an Activity [32] of 206 g and an Activity [33] of 193 g. For the same compound, the Activity [34] was 205 g.
